Assay results published in patent publication US20240308985A1 (Psy Therapeutics, Inc., priority 2021, published 2024).

target: Monoacylglycerol Lipase (MAGL) (Homo sapiens (Human), UniProt Q99685); test: MAGL inhibition potency (IC50) assay with 4NPA substrate; format: biochemical; conditions: Method 2: Cayman Chemical MAGL enzyme, 10 nM; read-out: MAGL Potency (Detection Method)
Excerpt: The potency of certain compounds for inhibiting MAGL were obtained using the following assays. The monoacylglycerol lipase inhibitor screening assay kit from Cayman Chemical was used to measure the MAGL potency for the compounds in Table 6 and Table 7. Cayman's Monoacylglycerol Lipase Inhibitor Screening Assay provides a method for screening human MAGL inhibitors. MAGL hydrolyzes 4-nitrophenylacetate resulting in a yellow product, 4-nitrophenol, with an absorbance of 405-412 nm. MAGL Inhibition was measured by the following assay. Monoacylglycerol Lipase (MAGL) inhibition was measured using recombinant MAGL enzyme (aa 2-303 RBC, internal preparation) and the substrate 4-Nitrophenyl acetate (4NPA) (Sigma-Aldrich, N8130). Hydrolysis of the substrate in the presence of the enzyme was measured by absorbance at 405 nm. 10 μL of assay buffer (10 mM Tris pH 7.5, 1 mM EDTA, 0.9% DMSO) was added to a black 384-well non-binding plate with clear bottom (Greiner, 781906) for each reaction. […] DMSO control wells were included for reference. A 10.8 nM (1.8×) MAGL mix in assay buffer was prepared, with 25 μL added to each reaction well, for a final assay concentration of 6 nM. No enzyme wells received 25 μL of buffer. Plate was incubated at room temperature for 30 minutes. 35 mM solution of 4NPA in methanol was prepared daily. A 4.5×4NPA substrate solution was prepared in assay buffer and 10 μL was added to each reaction well, for a final assay concentration of 0.25 mM. Plate was spun for 1 minute at 1000 rpm before measuring absorbance using a CLARIOstar plate reader (BMG Labtech). A kinetic reading at 405 nm was done every minute for 30 minutes. Data was analyzed using the linear slope of the reaction progress curve and the average of the no-enzyme wells (background) was subtracted from the data. The background-subtracted slope data was converted to % activity using the average of wells with enzyme and DMSO vehicle. IC50s were calculated using GraphPad software (Sigmoidal dose response, variable slope equation). […] Table 8 provides potency measurements of MAGL inhibition measured using the Potency Assay of Example 22 above, with the following modifications described in Table C. [table]

Sequence of Monoacylglycerol Lipase (MAGL) (Q99685 2-303): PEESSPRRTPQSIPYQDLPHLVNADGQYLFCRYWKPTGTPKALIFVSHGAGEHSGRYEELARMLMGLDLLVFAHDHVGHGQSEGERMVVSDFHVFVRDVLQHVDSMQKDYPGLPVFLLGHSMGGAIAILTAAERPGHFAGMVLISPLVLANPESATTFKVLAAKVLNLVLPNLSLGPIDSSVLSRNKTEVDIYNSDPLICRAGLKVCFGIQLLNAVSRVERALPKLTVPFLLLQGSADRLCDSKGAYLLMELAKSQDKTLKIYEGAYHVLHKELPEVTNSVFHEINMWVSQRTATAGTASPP

Compound | IC50 [nM]
CCOc1cc(F)ccc1C(=O)N1CC2(CC(c3cc(C)nn3-c3ccccc3C)C2)C1 [Compound 146, (2-ethoxy-4-fluorophenyl){6-[3-methyl-1-(o-tolyl)-5-pyrazolyl]-2-aza-2-spiro[3.3]heptyl}methanone] | 150 to 500
COc1cc(F)ccc1C(=O)N1CC2(CC(c3cc(C)nn3-c3ccccc3C)C2)C1 [Compound 142, (4-fluoro-2-methoxyphenyl)(6-(3-methyl-1-(o-tolyl)-1H-pyrazol-5-yl)-2-azaspiro[3.3]heptan-2-yl)methanone] | 500 to 1000
Cc1cc(C2=CC3(C2)CN(C(=O)c2cc(O)ccc2F)C3)n(-c2ccccc2C)n1 [Compound 120, (2-fluoro-5-hydroxyphenyl)(6-(3-methyl-1-(o-tolyl)-1H-pyrazol-5-yl)-2-azaspiro[3.3]hept-5-en-2-yl)methanone] | 150 to 500

same assay, conditions: Method 2: Cayman Chemical MAGL enzyme, 10 nM; read-out: Potency (MAGL inhibition)

Compound | IC50 [nM]
Cc1cc(C2CC3(C2)CN(C(=O)c2ccc[nH]2)C3)n(-c2ccccc2C)n1 [Compound 183] | > 10000
Cc1cc(C2CC3(C2)CN([C@@H]2COc4ccccc42)C3)n(-c2ccccc2C)n1 [Compound 155] | > 10000
Cc1cc(C2CC3(C2)CN([C@@H]2CCOc4ccccc42)C3)n(-c2ccccc2C)n1 [Compound 153] | > 10000
Cc1cc(C2CC3(C2)CN(C2CCOc4ccccc42)C3)n(-c2ccccc2C)n1 (stereo not shown) [Compound 152] | > 10000
Cc1cc(C2CC3(C2)CN(C(=O)c2cccn2C)C3)n(-c2ccccc2C)n1 [Compound 181] | > 10000
Cc1cc(C2CC3(C2)CN(C(=O)c2ccoc2)C3)n(-c2ccccc2C)n1 [Compound 179] | > 10000

same assay, conditions: Method 3: Reaction Biology MAGL enzyme, 10 nM; read-out: MAGL Potency (Detection Method)

Compound | IC50 [nM]
CCOc1cc(F)ccc1C(=O)N1CC2(CC(c3cc(C)nn3-c3ccccc3C)C2)C1 [Compound 146, (2-ethoxy-4-fluorophenyl){6-[3-methyl-1-(o-tolyl)-5-pyrazolyl]-2-aza-2-spiro[3.3]heptyl}methanone] | < 50

same assay, conditions: Method 4: Cayman Chemical MAGL enzyme, 15 nM; read-out: MAGL Potency (Detection Method)

Compound | IC50 [nM]
CCOc1cc(F)ccc1C(=O)N1CC2(CC(C(=O)N(C)c3ccccc3Cl)C2)C1 [Compound 206, N-o-chlorophenyl-N-methyl-2-(2-ethoxy-4-fluorobenzoyl)-2-aza-6-spiro[3.3]heptanecarboxamide] | 1000 to 5100
CCOc1cc(F)ccc1C(=O)N1CC2(CC(C(=O)N(C)c3ccccc3C(C)C)C2)C1 [Compound 205, N-o-cumenyl-N-methyl-2-(2-ethoxy-4-fluorobenzoyl)-2-aza-6-spiro[3.3]heptanccarboxamide] | 500 to 1000

same assay, conditions: Method 6: Reaction Biology MAGL enzyme, 6 nM; read-out: MAGL Potency (Detection Method)

Compound | IC50 [nM]
Cc1ccc(F)cc1-c1cc(C)n(C2CC3(C2)CN(C(=O)c2ccc(F)cc2OC(F)F)C3)n1 [Compound 455, (2-difluoromethoxy-4-fluorophenyl){6-[3-(5-fluoro-2-tolyl)-5-methyl-1-pyrazolyl]-2-aza-2-spiro[3.3]heptyl}methanone] | 50 to 150
Cc1cn(C2CC3(C2)CN(C(=O)c2ccc(F)cc2OC2CC2)C3)nc1-c1ccccc1F [Compound 425, (2-cyclopropoxy-4-fluorophenyl){6-[3-(o-fluorophenyl)-4-methyl-1-pyrazolyl]-2-aza-2-spiro[3.3]heptyl}methanone] | 150 to 500
COc1cc(F)ccc1C(=O)N1CC2(CC(n3nc(-c4cc(F)ccc4C)cc3C)C2)C1 [Compound 439, (4-fluoro-2-methoxyphenyl){6-[3-(5-fluoro-2-tolyl)-5-methyl-1-pyrazolyl]-2-aza-2-spiro[3.3]heptyl}methanone] | 1000 to 5100
Cc1cc(F)c(C(=O)N2CC3(CC(n4cc(C)c(-c5ccccc5C)n4)C3)C2)cc1O [Compound 443] | 1000 to 5100
Cc1cn(C2CC3(C2)CN(C(=O)c2cc(O)ccc2F)C3)nc1-c1ccccc1C(F)(F)F [Compound 444, (2-fluoro-5-hydroxyphenyl)(6-{4-methyl-3-[o-(trifluoromethyl)phenyl]-1-pyrazolyl}-2-aza-2-spiro[3.3]heptyl)methanone] | < 50
Cc1ccc(F)cc1-c1nn(C2CC3(C2)CN(C(=O)c2ccc(F)cc2OC2CC2)C3)cc1C [Compound 449, (2-cyclopropoxy-4-fluorophenyl){6-[3-(5-fluoro-2-tolyl)-4-methyl-1-pyrazolyl]-2-aza-2-spiro[3.3]beptyl}methanone] | 150 to 500
Cc1cc(-c2cc(F)ccc2C)n(C2CC3(C2)CN(C(=O)c2ccc(F)cc2OC2CC2)C3)n1 [Compound 423, (2-cyclopropoxy-4-fluorophenyl){6-[5-(5-fluoro-2-tolyl)-3-methyl-1-pyrazolyl]-2-aza-2-spiro[3.3]heptyl}methanone] | 1000 to 5100

same assay, conditions: Method 6: Reaction Biology MAGL enzyme, 6 nM; read-out: Potency (MAGL inhibition)

Compound | IC50 [nM]
Cc1ccccc1-c1cc(C)n(C2CC3(C2)CN(C(=O)c2cc(O)ccc2F)C3)n1 [Compound 442] | > 10000
O=C(c1ccc(F)cc1OC1CC1)N1CC2(CC(n3nc(C(F)(F)F)cc3-c3ccccc3C(F)(F)F)C2)C1 [Compound 424, (2-cyclopropoxy-4-fluorophenyl)(6-(3-(trifluoromethyl)-5-(2-(trifluoromethyl)phenyl)-1H-pyrazol-1-yl)-2-azaspiro[3.3]heptan-2-yl)methanone] | > 10000
Cc1cn(C2CC3(C2)CN(C(=O)c2cc(O)ccc2F)C3)nc1-c1ccccc1Cl [Compound 416] | > 10000
Cc1ccccc1-c1ccnn1C1CC2(C1)CN(C(=O)c1cc(O)ccc1F)C2 [Compound 405] | > 10000

same assay, conditions: Method 11: Reaction Biology MAGL enzyme, 25 nM (name: Conc 20); read-out: MAGL Potency (Detection Method)

Compound | IC50 [nM]
Cc1ccc(F)cc1-c1cc(C(F)(F)F)nn1C1CC2(C1)CN(C(=O)c1ccc(F)cc1OC1CC1)C2 [Compound 457, (2-cyclopropoxy-4-fluorophenyl){6-[5-(5-fluoro-2-tolyl)-3-(trifluoromethyl)-1-pyrazolyl]-2-aza-2-spiro[3.3]heptyl}methanone] | 1000 to 5100
CCOc1cc(F)ccc1C(=O)N1CC2(CC(n3nc(C)cc3-c3ccccc3C)C2)C1 [Compound 460] | 1000 to 5100

same assay, conditions: Method 11: Reaction Biology MAGL enzyme, 25 nM (name: Conc 20); read-out: Potency (MAGL inhibition)

Compound | IC50 [nM]
Cc1cc(-c2cc(F)ccc2C)n(C2CC3(C2)CN(C(=O)c2ccc(F)cc2OC(F)(F)F)C3)n1 [Compound 427] | > 10000

same assay, conditions: Method 14: Reaction Biology MAGL enzyme, 6 nM; read-out: MAGL Potency (Detection Method)

Compound | IC50 [nM]
O=C(c1cc(O)ccc1F)N1CC2(CC(c3nnc(-c4ccccc4Cl)o3)C2)C1 [Compound 377, {6-[5-(o-chlorophenyl)-1,3,4-oxadiazol-2-yl]-2-aza-2-spiro[3.3]heptyl}(2-fluoro-5-hydroxyphenyl)methanone] | 500 to 1000
Cc1cc(C2CC3(C2)CN(C(=O)c2ccc(F)cc2OC2CC2)C3)n(-c2ccccc2C)n1 [Compound 374, (2-cyclopropoxy-4-fluorophenyl) {6-[3-methyl-1-(o-tolyl)-5-pyrazolyl]-2-aza-2-spiro[3.3]heptyl}methanone] | 150 to 500
O=C(c1cc(O)ccc1F)N1CC2(CC(c3nccn3-c3ccccc3)C2)C1 [Compound 401, (2-fluoro-5-hydroxyphenyl){6-(1-phenyl-2-imidazolyl)-2-aza-2-spiro[3.3]heptyl}methanone] | 500 to 1000
Cc1ccccc1-c1nn(C2CC3(C2)CN(C(=O)c2cc(O)ccc2F)C3)cc1C [Compound 440, (2-fluoro-5-hydroxyphenyl){6-[4-methyl-3-(o-tolyl)-1-pyrazolyl]-2-aza-2-spiro[3.3]heptyl}methanone] | < 50
Cc1cc(F)ccc1-n1c(C)cnc1C1CC2(C1)CN(C(=O)c1cc(O)ccc1F)C2 [Compound 380, (2-fluoro-5-hydroxyphenyl){6-[1-(4-fluoro-2-tolyl)-5-methyl-2-imidazolyl]-2-aza-2-spiro[3.3]heptyl}methanone] | 1000 to 5100
Cc1ccccc1-c1ccn(C(=O)C2CC3(C2)CN(C(=O)c2cc(O)ccc2F)C3)n1 [Compound 381, {2-(2-fluoro-5-hydroxybenzoyl)-2-aza-6-spiro[3,3]heptyl}[3-(o-tolyl)-1-pyrazolyl]methanone] | 150 to 500

same assay, conditions: Method 14: Reaction Biology MAGL enzyme, 6 nM; read-out: Potency (MAGL inhibition)

Compound | IC50 [nM]
O=C(c1cc(O)ccc1F)N1CC2(CC(C(=O)N3CCC4(CCCO4)C3)C2)C1 (stereo not shown) [Compound 400] | > 10000
O=C(c1cc(O)ccc1F)N1CC2(CC(C(=O)N3CCOCC3)C2)C1 [Compound 384] | > 10000
Cc1cc(C2CC3(C2)CN(C(=O)c2cccc4c2CCO4)C3)n(-c2ccccc2C)n1 [Compound 403] | > 10000
Cc1cc(C2CC3(C2)CN(C(=O)c2ccc4c(c2)OCC4)C3)n(-c2ccccc2C)n1 [Compound 402] | > 10000

same assay, conditions: Methods 1, 2, 3; read-out: MAGL Potency (Detection Method)

Compound | IC50 [nM]
Cc1cc(C2CC3(C2)CN(C(=O)c2cc(O)c(F)cc2F)C3)n(-c2ccccc2C)n1 [Compound 126, (2,4-difluoro-5-hydroxyphenyl)(6-(3-methyl-1-(o-tolyl)-1H-pyrazol-5-yl)-2-azaspiro[3.3]heptan-2-yl)methanone] | < 50
